Assays:
amyloid-β [1] = conditions: ref Choi et al., 2009; cited from earlier work
amyloid-β plaques = assay: 18F-florbetapir PET scan in Alzheimer's disease patients; format: in vivo, human
amyloid-β [2] = conditions: ref Joshi et al., 2012, cited from earlier work
amyloid-β plaque = conditions: preliminary clinical data; ref Kung et al., 2012; cited from earlier work
[3] = Alzheimer's disease (n = 3), PET 50–65 min post-injection

| SMILES | Kd (amyloid-β [1]) | SUVR Anterior cingulate (amyloid-β plaques; [3]) | SUVR Cortical average (amyloid-β plaques; [3]) | SUVR Frontal cortex (amyloid-β plaques; [3]) | SUVR Occipital cortex (amyloid-β plaques; [3]) | SUVR Parietal cortex (amyloid-β plaques; [3]) | SUVR Posterior cingulate (amyloid-β plaques; [3]) | SUVR Subcortical white matter (amyloid-β plaques; [3]) | SUVR Temporal cortex (amyloid-β plaques; [3]) | 18F-florbetapir scan, visual interpretation (amyloid-β plaques; subject AD01) | 18F-florbetapir scan, visual interpretation (amyloid-β plaques; subject AD02) | 18F-florbetapir scan, visual interpretation (amyloid-β plaques; subject AD03) | Mean cortical-to-cerebellar SUVR (amyloid-β [2]; Alzheimer's disease patients) | Greater SUVR in Alzheimer's disease patients relative to healthy controls (amyloid-β [2]) | Target-to-background ratio for amyloid-β plaque labelling (amyloid-β plaque) |
| --- | --- | --- | --- | --- | --- | --- | --- | --- | --- | --- | --- | --- | --- | --- | --- |
| CNc1ccc(/C=C/c2ccc(OCCOCCOCCF)nc2)cc1 [18F-florbetapir] | 3.7 nM | 1.28 ± 0.05 | 1.31 ± 0.10 | 1.29 ± 0.13 | 1.12 ± 0.25 | 1.37 ± 0.21 | 1.48 ± 0.11 | 1.62 ± 0.16 | 1.32 ± 0.15 | Positive | Positive | Positive | 1.42 ± 0.24 | 42% |  |
| CN(C)c1ccc(-c2cn3cc([123I])ccc3n2)cc1 [123I-IMPY, ^123 I-2-(4′-dimethylaminophenyl)-6-iodo-imidazo[1,2-a]pyridine] |  |  |  |  |  |  |  |  |  |  |  |  |  |  | not as robust as that of PET tracers |
